We go through six compounds from DBAASP.

Common to all, as to assay: ≥ marks a high value that may be exact or a test limit, other limits are often not marked, values filed in µg/mL are converted to µM
Test [1] deals with Enterococcus faecalis ATCC 29212.
The test system of test [2] is Escherichia coli UB1005.
In test [3] the test system is Pseudomonas aeruginosa K799.
Test [4] has as its system Salmonella enterica subsp. enterica serovar Typhimurium ATCC 14028s.
Test [5] deals with Staphylococcus aureus ATCC 25923.
The test system of test [6] is Staphylococcus epidermidis C621.
For test [7], the system named is Acinetobacter baumannii ATCC 19606.
The test system of test [8] is Acinetobacter baumannii.
Test [9] concerns Bacillus subtilis ATCC 6051.
Test [10] deals with Candida albicans ATCC 90028.
The subject of test [11] is Cryptococcus neoformans ATCC 208821.
In test [12] the test system is Escherichia coli ATCC 25922.
For test [13], the system named is Klebsiella pneumoniae ATCC 13883.
Test [14] concerns Klebsiella pneumoniae ATCC 700603.
In test [15] the test system is Klebsiella pneumoniae ATCC BAA-2146.
Test [16] relates to Klebsiella pneumoniae.
In test [17] the test system is Pseudomonas aeruginosa ATCC 27853.
In test [18] the test system is Pseudomonas aeruginosa.
Test [19] has as its system Staphylococcus aureus ATCC 43300.
Test [20] concerns Escherichia coli ATCC 8739.
Test [21] deals with Escherichia coli.
Test [22] deals with Pseudomonas aeruginosa PA14.
Test [23] has as its system Pseudomonas aeruginosa PAO1.
The test system of test [24] is Staphylococcus aureus.
Test [25] relates to Acinetobacter baumannii CCARM 12035.
The test system of test [26] is Acinetobacter baumannii KCTC 2508.
Test [27] concerns Bacillus subtilis KCTC 3068.
The test system of test [28] is Escherichia coli CCARM 1229.
Test [29] relates to Escherichia coli KCTC 1682.
For test [30], the system named is Pseudomonas aeruginosa CCARM 2002.
Test [31] concerns Pseudomonas aeruginosa KCTC 2004.
For test [32], the system named is Salmonella typhimurium CCARM 8007.
The test system of test [33] is Salmonella typhimurium KCTC 1926.
Test [34] has as its system Staphylococcus aureus CCARM 3126.
In test [35] the test system is Staphylococcus aureus KCTC 1621.
Test [36] has as its system Staphylococcus epidermidis KCTC 1917.

What is called MIC is the smallest concentration in the dilution series that meets the test's criterion for growth inhibition. High values mean a less susceptible organism, low ones a more susceptible organism.

In brackets after ≈: the same amount, converted by molar mass. Several values for one entry are separate records, joined by “and”; a condition that tells them apart may be missing. Equal entries are not always repeated. A value given as a limit tells only on which side of the number the result lay.

For the compound `CC[C@H](C)[C@H](NC(=O)[C@@H]1CSSC[C@H](NC(=O)[C@@H](NC(=O)[C@@H](N)CCCN=C(N)N)[C@@H](C)CC)C(=O)N[C@@H](CCCN=C(N)N)C(=O)N[C@@H]([C@@H](C)CC)C(=O)N[C@@H](C(C)C)C(=O)N[C@@H](C(C)C)C(=O)N[C@@H]([C@@H](C)CC)C(=O)N[C@@H](CCCN=C(N)N)C(=O)N1)C(=O)N[C@@H](CCCN=C(N)N)C(N)=O` [RICRIVVIRCIR], the MIC in test [1] was above 21.3 µM; in test [2], 2.67 µM (≈ 3.99 µg/mL); in [3], 10.7 µM (≈ 16 µg/mL); in test [4] it was 5.33 µM (≈ 7.98 µg/mL); in [5] it was 21.3 µM (≈ 31.9 µg/mL); in test [6], 5.33 µM (≈ 7.98 µg/mL).
On to `CC[C@H](C)[C@@H]1NC(=O)CNC(=O)[C@H](CCCN=C(N)N)NC(=O)[C@H](Cc2ccc(O)cc2)NC(=O)[C@@H]2CSSC[C@H](NC1=O)C(=O)N[C@@H](Cc1ccc(O)cc1)C(=O)N[C@@H](CCCN=C(N)N)C(=O)N[C@@H](CCCN=C(N)N)C(=O)N[C@H](C(=O)N[C@@H](CCCN=C(N)N)C(=O)O)CSSC[C@H](NC(=O)[C@H](Cc1c[nH]c3ccccc13)NC(=O)[C@@H](N)CCCCN)C(=O)N[C@@H](Cc1ccccc1)C(=O)N[C@@H](CCCN=C(N)N)C(=O)N[C@@H](C)C(=O)N2` [KWCFRACYRGICYRRCR], for which the MIC in [7] was 0.112 µM (≈ 0.25 µg/mL); in [8], 0.223 µM (≈ 0.499 µg/mL); in test [9] it was 0.112 µM (≈ 0.25 µg/mL); in test [10] it was 3.57 µM (≈ 7.99 µg/mL); in [11] it was 0.446 µM (≈ 0.998 µg/mL); in [12], 0.112 µM (≈ 0.25 µg/mL). Also, the MIC in test [13] is 0.112 µM (≈ 0.25 µg/mL); in test [14], 0.446 µM (≈ 0.998 µg/mL); in test [15] it was 0.446 µM (≈ 0.998 µg/mL); in test [16], 7.14 µM (≈ 16 µg/mL); in test [17] it was 0.446 µM (≈ 0.998 µg/mL); in [18], 0.893 µM (≈ 2 µg/mL). Further, the minimum inhibitory concentration (MIC) in test [19] worked out at 1.79 µM (≈ 3.99 µg/mL).
`CC[C@H](C)[C@H](NC(=O)[C@H](CCCCN)NC(=O)[C@H](CC(C)C)NC(=O)[C@H](CCCN=C(N)N)NC(=O)[C@H](CC(C)C)NC(=O)[C@H](CCCCN)NC(=O)[C@H](CCCCN)NC(=O)[C@H](CC(C)C)NC(=O)[C@H](CC(C)C)NC(=O)[C@H](CCCCN)NC(=O)[C@H](CCCCN)NC(=O)[C@H](CC(N)=O)NC(=O)[C@H](CCCN=C(N)N)NC(=O)[C@H](C)NC(=O)[C@H](CCSC)NC(=O)[C@@H]1CCCN1)C(=O)N[C@@H](C)C(=O)N[C@@H](Cc1ccccc1)C(=O)N[C@@H](CCCCN)C(=O)O` [PMARNKKLLKKLRLKIAFK]: the MIC in [12] was 8 µM (≈ 18.4 µg/mL); in [20], 8 µM and 6.97 µM; in test [21] it was 8 µM (≈ 18.4 µg/mL); in test [16], 16 µM (≈ 36.8 µg/mL); in [17], 16 µM (≈ 36.8 µg/mL); in test [22], 8 µM (≈ 18.4 µg/mL). Further, the minimal inhibitory concentration (MIC) in [23] was 8 µM (≈ 18.4 µg/mL); in [5], 64 µM and 55.7 µM; in test [24] it was above 64 µM.
For `CC[C@H](C)[C@@H]1NC(=O)CNC(=O)[C@H](C)NC(=O)[C@H](Cc2ccc(O)cc2)NC(=O)[C@@H]2CSSC[C@H](NC1=O)C(=O)N[C@@H](Cc1ccc(O)cc1)C(=O)N[C@@H](CCCN=C(N)N)C(=O)N[C@@H](CCCN=C(N)N)C(=O)N[C@H](C(=O)N[C@@H](CCCN=C(N)N)C(=O)O)CSSC[C@H](NC(=O)[C@H](Cc1c[nH]c3ccccc13)NC(=O)[C@@H](N)CCCCN)C(=O)N[C@@H](Cc1ccccc1)C(=O)N[C@@H](CCCN=C(N)N)C(=O)N[C@@H](CCCN=C(N)N)C(=O)N2` [KWCFRRCYAGICYRRCR], the MIC in [7] was 7.14 µM (≈ 16 µg/mL); in test [8], 7.14 µM (≈ 16 µg/mL); in [9], 0.112 µM (≈ 0.25 µg/mL); in test [10] it was 7.14 µM (≈ 16 µg/mL); in [11] it was 1.79 µM (≈ 3.99 µg/mL); in test [12] it was 0.223 µM (≈ 0.499 µg/mL). In addition, the minimum inhibitory concentration (MIC) in test [13] is 7.14 µM (≈ 16 µg/mL); in test [14], 7.14 µM (≈ 16 µg/mL); in [15], 7.14 µM (≈ 16 µg/mL); in test [16] it was above 7.14 µM; in test [17] it was above 7.14 µM; in [18], above 7.14 µM. In addition, the MIC in [19] is above 7.14 µM.
Consider `CC[C@H](C)[C@H](NC(=O)[C@H](CCCCN)NC(=O)[C@H](CCCCN)NC(=O)[C@H](Cc1ccccc1)NC(=O)[C@@H](NC(=O)[C@H](CCCCN)NC(=O)[C@H](Cc1c[nH]c2ccccc12)NC(=O)[C@@H](N)CCCN=C(N)N)[C@@H](C)CC)C(=O)N[C@@H](CCC(=O)O)C(=O)N[C@@H](CCCCN)C(=O)N[C@H](C(=O)NCC(N)=O)C(C)C` [RWKIFKKIEKVG], for which the MIC in test [25] is 16 µM (≈ 24.5 µg/mL); in test [26], at least 64 µM; in [27] it was at least 64 µM; in test [28], at least 64 µM; in [29], 16 µM (≈ 24.5 µg/mL); in [30], 16 µM (≈ 24.5 µg/mL). For the same compound, the MIC in test [31] is 8 µM (≈ 12.2 µg/mL); in test [32], at least 32 µM; in test [33] it was at least 64 µM; in test [34], at least 64 µM; in test [35], 16 µM (≈ 24.5 µg/mL); in test [36], at least 64 µM.
Consider `CC[C@H](C)[C@H](NC(=O)[C@H](CCCCN)NC(=O)[C@H](Cc1c[nH]c2ccccc12)NC(=O)[C@@H](N)CCCN=C(N)N)C(=O)N[C@@H](Cc1ccccc1)C(=O)N[C@@H](CCCCN)C(=O)N[C@@H](CCCCN)C(=O)N[C@H](C(=O)N[C@H](C(=O)N[C@@H](CCCCN)C(=O)N[C@@H](CCCCN)C(=O)N[C@@H](C)C(N)=O)C(C)C)C(C)C` [RWKIFKKVVKKA], for which the minimal inhibitory concentration (MIC) in test [25] came out at 8 µM (≈ 12.2 µg/mL); in test [26], 8 µM (≈ 12.2 µg/mL); in test [27], 16 µM (≈ 24.5 µg/mL); in test [28], 16 µM (≈ 24.5 µg/mL); in [29], 8 µM (≈ 12.2 µg/mL); in test [30] it was 16 µM (≈ 24.5 µg/mL). In addition, the MIC was 8 µM (≈ 12.2 µg/mL) in test [31]; 16 µM (≈ 24.5 µg/mL) in [32]; at least 32 µM in test [33]; 16 µM (≈ 24.5 µg/mL) in test [34]; 8 µM (≈ 12.2 µg/mL) in [35]; 16 µM (≈ 24.5 µg/mL) in test [36].
